Source: PubChem BioAssay (NCI)
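Compound exposure: 48 hours, 5 concentrations, 96-well plates. The concentration for full growth arrest is given as TGI.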

Columns and labels:
Experiment in all cases: growth of human tumour cells (NCI), 48 h
SK-MEL-5 melanoma = test system: SK-MEL-5 melanoma
MOLT-4 leukemia = test system: MOLT-4 leukemia
SR leukemia = test system: SR leukemia
MDA-N = test system: MDA-N
U251 CNS = test system: U251 CNS
M14 melanoma = test system: M14 melanoma
MDA-MB-231 breast = test system: MDA-MB-231 breast
MCF7 breast = test system: MCF7 breast
MALME-3M melanoma = test system: MALME-3M melanoma
HL-60(TB) leukemia = test system: HL-60(TB) leukemia
SK-MEL-28 melanoma = test system: SK-MEL-28 melanoma
SNB-75 CNS = test system: SNB-75 CNS
T-47D breast = test system: T-47D breast
CCRF-CEM leukemia = test system: CCRF-CEM leukemia
IGROV1 ovarian = test system: IGROV1 ovarian
NCI-H226 lung = test system: NCI-H226 lung
KM12 colon = test system: KM12 colon
786-0 renal = test system: 786-0 renal
RXF 393 renal = test system: RXF 393 renal
NCI-H522 lung = test system: NCI-H522 lung
SW-620 colon = test system: SW-620 colon
TK-10 renal = test system: TK-10 renal
OVCAR-5 ovarian = test system: OVCAR-5 ovarian
A498 renal = test system: A498 renal
LOX IMVI melanoma = test system: LOX IMVI melanoma
HOP-62 NSCLC = test system: HOP-62 NSCLC
HCC-2998 colon = test system: HCC-2998 colon
OVCAR-4 ovarian = test system: OVCAR-4 ovarian
HT29 colon = test system: HT29 colon
UACC-62 melanoma = test system: UACC-62 melanoma
PC-3 prostate = test system: PC-3 prostate
NCI-H460 lung = test system: NCI-H460 lung
DU-145 prostate = test system: DU-145 prostate
BT-549 breast = test system: BT-549 breast
HCT-15 colon = test system: HCT-15 colon
SN12C renal = test system: SN12C renal
SF-295 CNS = test system: SF-295 CNS
A549 NSCLC = test system: A549 NSCLC
ACHN renal = test system: ACHN renal
HS 578T breast = test system: HS 578T breast
SK-OV-3 ovarian = test system: SK-OV-3 ovarian
NCI/ADR-RES ovarian = test system: NCI/ADR-RES ovarian
SF-268 CNS = test system: SF-268 CNS
HOP-92 NSCLC = test system: HOP-92 NSCLC
OVCAR-3 ovarian = test system: OVCAR-3 ovarian
OVCAR-8 ovarian = test system: OVCAR-8 ovarian
MDA-MB-435 = test system: MDA-MB-435
NCI-H23 lung = test system: NCI-H23 lung
RPMI-8226 leukemia = test system: RPMI-8226 leukemia
HCT-116 colon = test system: HCT-116 colon
COLO 205 colon = test system: COLO 205 colon
SNB-19 CNS = test system: SNB-19 CNS
SF-539 CNS = test system: SF-539 CNS
K-562 leukemia = test system: K-562 leukemia
SK-MEL-2 melanoma = test system: SK-MEL-2 melanoma
UO-31 renal = test system: UO-31 renal
EKVX NSCLC = test system: EKVX NSCLC
CAKI-1 renal = test system: CAKI-1 renal
UACC-257 melanoma = test system: UACC-257 melanoma

COC1=C(N2CC2)C(=O)c2nc3n(c2C1=O)CCC3
TGI (SK-MEL-5 melanoma): 2.56 µM | TGI (MOLT-4 leukemia): 2.41 µM | TGI (SR leukemia): 16.9 µM | TGI (MDA-N): 2.89 µM | TGI (U251 CNS): 2.86 µM | TGI (M14 melanoma): 0.619 µM | TGI (MDA-MB-231 breast): 6.28 µM | TGI (MCF7 breast): 4.08 µM | TGI (MALME-3M melanoma): 0.827 µM | TGI (HL-60(TB) leukemia): 0.595 µM | TGI (SK-MEL-28 melanoma): 12.2 µM | TGI (SNB-75 CNS): 3.57 µM | TGI (T-47D breast): 4.15 µM | TGI (CCRF-CEM leukemia): 1.33 µM | TGI (IGROV1 ovarian): 3.15 µM | TGI (NCI-H226 lung): 4.76 µM | TGI (KM12 colon): 3.11 µM | TGI (786-0 renal): 1.03 µM | TGI (RXF 393 renal): 0.261 µM | TGI (NCI-H522 lung): 0.385 µM | TGI (SW-620 colon): 2.19 µM | TGI (TK-10 renal): 7.08 µM | TGI (OVCAR-5 ovarian): 3.46 µM | TGI (A498 renal): 2.86 µM | TGI (LOX IMVI melanoma): 2.15 µM | TGI (HOP-62 NSCLC): 2.34 µM | TGI (HCC-2998 colon): 2.44 µM | TGI (OVCAR-4 ovarian): 0.526 µM | TGI (HT29 colon): 1.57 µM | TGI (UACC-62 melanoma): 3.12 µM | TGI (PC-3 prostate): 5.27 µM | TGI (NCI-H460 lung): 2.42 µM | TGI (DU-145 prostate): 1.36 µM | TGI (BT-549 breast): 2.39 µM | TGI (HCT-15 colon): 1.55 µM | TGI (SN12C renal): 2.95 µM | TGI (SF-295 CNS): 2.07 µM | TGI (A549 NSCLC): 6.47 µM | TGI (ACHN renal): 0.851 µM | TGI (HS 578T breast): 31.3 µM | TGI (SK-OV-3 ovarian): 3.04 µM | TGI (NCI/ADR-RES ovarian): 3.53 µM | TGI (SF-268 CNS): 5.23 µM | TGI (HOP-92 NSCLC): 7.74 µM | TGI (OVCAR-3 ovarian): 10.7 µM | TGI (OVCAR-8 ovarian): 4.7 µM | TGI (MDA-MB-435): 3.32 µM | TGI (NCI-H23 lung): 2.34 µM | TGI (RPMI-8226 leukemia): 0.336 µM | TGI (HCT-116 colon): 1.93 µM | TGI (COLO 205 colon): 2.13 µM | TGI (SNB-19 CNS): 2.92 µM | TGI (SF-539 CNS): 7.79 µM

C=C1CC(C)(COc2ccc3ccc(=O)oc3c2)OC1=O (stereo not drawn)
TGI (SK-MEL-5 melanoma): 6.65 µM | TGI (MOLT-4 leukemia): 2.46 µM | TGI (SR leukemia): > 20.7 µM | TGI (MDA-N): 13.8 µM | TGI (U251 CNS): 27.1 µM | TGI (M14 melanoma): 4.97 µM | TGI (K-562 leukemia): 32.1 µM | TGI (MDA-MB-231 breast): 24.6 µM | TGI (MCF7 breast): 5.65 µM | TGI (SK-MEL-2 melanoma): 8.8 µM | TGI (MALME-3M melanoma): 6.31 µM | TGI (HL-60(TB) leukemia): 2.57 µM | TGI (SK-MEL-28 melanoma): 11.2 µM | TGI (SNB-75 CNS): 22.6 µM | TGI (T-47D breast): 17.3 µM | TGI (CCRF-CEM leukemia): 5.11 µM | TGI (IGROV1 ovarian): 10.8 µM | TGI (NCI-H226 lung): 27.3 µM | TGI (UO-31 renal): 29.5 µM | TGI (KM12 colon): 17.6 µM | TGI (EKVX NSCLC): 26.7 µM | TGI (786-0 renal): 7.42 µM | TGI (CAKI-1 renal): 7.84 µM | TGI (NCI-H522 lung): 2.84 µM | TGI (SW-620 colon): 4.79 µM | TGI (TK-10 renal): 4.29 µM | TGI (OVCAR-5 ovarian): 22.1 µM | TGI (A498 renal): 23.1 µM | TGI (LOX IMVI melanoma): 5.65 µM | TGI (HOP-62 NSCLC): 39.5 µM | TGI (HCC-2998 colon): 6.96 µM | TGI (UACC-257 melanoma): 2.58 µM | TGI (OVCAR-4 ovarian): 11.1 µM | TGI (HT29 colon): 9.66 µM | TGI (UACC-62 melanoma): 13.2 µM | TGI (PC-3 prostate): 16.2 µM | TGI (NCI-H460 lung): 22.9 µM | TGI (DU-145 prostate): 12.5 µM | TGI (BT-549 breast): 2.65 µM | TGI (HCT-15 colon): 8.71 µM | TGI (SN12C renal): 25 µM | TGI (SF-295 CNS): 20.8 µM | TGI (A549 NSCLC): 30.5 µM | TGI (ACHN renal): 11.2 µM | TGI (HS 578T breast): 24.3 µM | TGI (SK-OV-3 ovarian): 21.4 µM | TGI (NCI/ADR-RES ovarian): 11.2 µM | TGI (SF-268 CNS): 33.5 µM | TGI (HOP-92 NSCLC): 4.4 µM | TGI (OVCAR-3 ovarian): 17.2 µM | TGI (OVCAR-8 ovarian): 19.7 µM | TGI (MDA-MB-435): 9.35 µM | TGI (NCI-H23 lung): 12.3 µM | TGI (RPMI-8226 leukemia): 4.7 µM | TGI (HCT-116 colon): 6.38 µM | TGI (COLO 205 colon): 4.42 µM | TGI (SNB-19 CNS): 51.9 µM | TGI (SF-539 CNS): 10.2 µM

CC(=O)OCC1OC(N2C(C)=C(C(C)=O)C(c3ccco3)C(C#N)=C2S)C(OC(C)=O)C(OC(C)=O)C1OC(C)=O (stereo not drawn)
TGI (SK-MEL-5 melanoma): > 100 µM | TGI (MOLT-4 leukemia): > 100 µM | TGI (SR leukemia): > 100 µM | TGI (MDA-N): > 100 µM | TGI (U251 CNS): > 100 µM | TGI (M14 melanoma): > 100 µM | TGI (K-562 leukemia): > 100 µM | TGI (MDA-MB-231 breast): > 100 µM | TGI (MCF7 breast): > 100 µM | TGI (SK-MEL-2 melanoma): > 100 µM | TGI (MALME-3M melanoma): > 100 µM | TGI (HL-60(TB) leukemia): > 100 µM | TGI (SK-MEL-28 melanoma): > 100 µM | TGI (SNB-75 CNS): > 100 µM | TGI (T-47D breast): > 100 µM | TGI (CCRF-CEM leukemia): > 100 µM | TGI (IGROV1 ovarian): > 100 µM | TGI (NCI-H226 lung): > 100 µM | TGI (UO-31 renal): > 100 µM | TGI (KM12 colon): > 100 µM | TGI (786-0 renal): > 100 µM | TGI (RXF 393 renal): > 100 µM | TGI (CAKI-1 renal): > 100 µM | TGI (NCI-H522 lung): > 100 µM | TGI (SW-620 colon): > 100 µM | TGI (TK-10 renal): > 100 µM | TGI (OVCAR-5 ovarian): > 100 µM | TGI (A498 renal): > 100 µM | TGI (LOX IMVI melanoma): > 100 µM | TGI (HOP-62 NSCLC): > 100 µM | TGI (HCC-2998 colon): > 100 µM | TGI (UACC-257 melanoma): > 100 µM | TGI (OVCAR-4 ovarian): > 100 µM | TGI (HT29 colon): > 100 µM | TGI (UACC-62 melanoma): > 100 µM | TGI (PC-3 prostate): > 100 µM | TGI (NCI-H460 lung): > 100 µM | TGI (DU-145 prostate): > 100 µM | TGI (BT-549 breast): > 100 µM | TGI (HCT-15 colon): > 100 µM | TGI (SN12C renal): > 100 µM | TGI (SF-295 CNS): > 100 µM | TGI (A549 NSCLC): > 100 µM | TGI (ACHN renal): > 100 µM | TGI (HS 578T breast): > 100 µM | TGI (NCI/ADR-RES ovarian): > 100 µM | TGI (SF-268 CNS): > 100 µM | TGI (HOP-92 NSCLC): > 100 µM | TGI (OVCAR-3 ovarian): > 100 µM | TGI (OVCAR-8 ovarian): > 100 µM | TGI (MDA-MB-435): > 100 µM | TGI (NCI-H23 lung): > 100 µM | TGI (RPMI-8226 leukemia): > 100 µM | TGI (HCT-116 colon): > 100 µM | TGI (COLO 205 colon): > 100 µM | TGI (SNB-19 CNS): > 100 µM | TGI (SF-539 CNS): > 100 µM
